system: cholesterol biosynthesis; assay: Inhibitory activity against cholesterol biosynthesis (method of J. Biol. Chem. 234, 2835 (1959)); type: biochemical; settings: method of Journal of Biological Chemistry, 234, 2835 (1959)
From the text: The inhibitory activities of certain of the compounds of the invention, in terms of the concentration in μg/ml required to inhibit cholesterol biosynthesis by 50% [measured by the method described in the Journal of Biological Chemistry, 234, 2835 (1959)], are as follows: […]

First: CC(O)[C@H](C)C(=O)O[C@H]1CCC=C2C=C[C@H](C)[C@H](CC[C@@H]3C[C@@H](O)CC(=O)O3)[C@H]21 (some centres unmarked) [3"-hydroxy-ML-236B lactone, 3"-Hydroxy-ML-236B lactone]
Second: CC[C@H](C)C(=O)O[C@H]1CCC=C2C=C[C@H](C)[C@H](CC[C@@H]3C[C@@H](O)CC(=O)O3)[C@H]21 [ML-236B lactone, reference compound]
The “concentration required to inhibit cholesterol biosynthesis by 50%” value of the first is 3.9-fold higher: 0.039 µg/mL for the first, 0.010 µg/mL for the second.

Going from `CC(O)[C@H](C)C(=O)O[C@H]1C[C@H](O)C=C2C=C[C@H](C)[C@H](CC[C@@H](O)C[C@@H](O)CC(=O)O)[C@H]21` (single isomer, unassigned) [Sodium 3",6'β-dihydroxy-ML-236B carboxylate, Substance B] to `CC(O)[C@H](C)C(=O)O[C@H]1CCC=C2C=C[C@H](C)[C@H](CC[C@@H](O)C[C@@H](O)CC(=O)O)[C@H]21` (some centres unmarked) [Sodium 3"-hydroxy-ML-236B carboxylate], the “concentration required to inhibit cholesterol biosynthesis by 50%” value falls from 0.024 µg/mL to 0.0032 µg/mL (7.5-fold).

In the case of `CC(O)[C@H](C)C(=O)O[C@H]1C[C@H](O)C=C2C=C[C@H](C)[C@H](CC[C@@H](O)C[C@@H](O)CC(=O)O)[C@H]21` (single isomer, unassigned) [Sodium 3",6'β-dihydroxy-ML-236B carboxylate, Substance A], the “concentration required to inhibit cholesterol biosynthesis by 50%” value is reported as 0.0018 µg/mL.

Source: patent US5153124A, “Hydroxyl-ML-236B derivatives, their preparation and use” (Sankyo Company Limited, priority 1985, dated 1992)
